For assay [1], the target named is T1, pseudo-kinase domain (JH2) of human V617F mutant JAK2 (Homo sapiens, UniProt O60674, F794H/V617F/W659A/W777A).
T1 construct: pseudo-kinase domain (JH2, amino-acids 536-812 with 3 surface mutations W659A, W777A, F794H); His (C); purchased BPS Bioscience 79498; host or cells: baculovirus expression system
Kind of assay: JAK2 LanthaScreen JH2-V617F Binding Assay. The note with it: 50 nM Fluorescent JAK2-JH2 Tracer, 1 hour at 25° C. Put shortly: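 Biotinylated His-Avi-tagged JH2 domain (aa 536-812, V617F plus 3 surface mutations; 0.26 nM), baculovirus-expressed, incubated 1 hour at 25° C with compound, 50 nM fluorescent JH2 tracer and 0.25 nM streptavidin-Tb in pH 7.5 Tris buffer. Tracer displacement read by LanthaScreen TR-FRET; non-specific binding with 2 mM ATP; four-parameter IC50.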
On the technique in general: TR-FRET usually uses a lanthanide donor and a delayed reading to cut background.

The target of assay [2] is T2, pseudo-kinase domain (JH2) of human Wild Type JAK2 (Homo sapiens, UniProt O60674, F794H/W659A/W777A).
T2 construct: pseudo-kinase domain (JH2, amino-acids 536-812 with 3 surface mutations W659A, W777A, F794H); His (C); purchased BPS Bioscience 79463; host or cells: baculovirus expression system
T2 sequence (O60674 536-812 W659A/W777A/F794H): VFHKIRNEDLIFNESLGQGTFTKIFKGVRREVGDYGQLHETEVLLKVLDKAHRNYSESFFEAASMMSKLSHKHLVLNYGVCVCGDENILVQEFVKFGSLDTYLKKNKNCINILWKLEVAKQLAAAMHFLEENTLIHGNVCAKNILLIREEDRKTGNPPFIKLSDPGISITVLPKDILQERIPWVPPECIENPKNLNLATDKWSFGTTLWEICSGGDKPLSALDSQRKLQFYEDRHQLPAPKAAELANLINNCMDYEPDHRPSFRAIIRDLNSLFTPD
The assay is described as follows: JAK2 LanthaScreen JH2-WT Binding Assay. The conditions noted are these: 50 nM Fluorescent JAK2-JH2 Tracer, 1 hour at 25° C. Put shortly:
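Biotinylated His-Avi-tagged JAK2 JH2 (aa 536-812, three surface mutations; 0.145 nM) competed with 50 nM fluorescent tracer, using 0.25 nM streptavidin-Tb, in pH 7.5 Tris buffer for 1 h at 25° C.; non-specific binding was set with 2 mM ATP. TR-FRET read; IC50 from four-parameter fit.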

Assay [3] addresses T3, catalytic domain (JH1) of human JAK2 (Homo sapiens, UniProt O60674).
T3 construct: catalytic domain (JH1, amino acids 826-1132) of human JAK2; FLAG (N); purchased Carna Biosciences 08-445-20N; host or cells: baculovirus expression system
The assay is described as follows: JAK2 LanthaScreen JH1 Binding Assay. The conditions noted are these: 50 nM Fluorescent JAK2-JH1 Tracer, 2 hours at 25° C. Put shortly:
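TR-FRET tracer-displacement binding using N-terminal FLAG-tagged, biotinylated JH1 (aa 826-1132, baculovirus-expressed) at 1.5 nM, with 50 nM fluorescent tracer and 0.5 nM streptavidin-Tb. Buffer was 50 mM Tris pH 7.5, 10 mM MgCl2, 5 mM DTT, 2 h at 25° C. Non-specific binding used 2 mM ATP; IC50 came from four-parameter fits.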

T1 sequence (O60674 536-812 V617F/W659A/W777A/F794H): as the sequence (O60674 536-812 W659A/W777A/F794H) above, with V82F counted along it
T3 sequence (O60674 826-1132): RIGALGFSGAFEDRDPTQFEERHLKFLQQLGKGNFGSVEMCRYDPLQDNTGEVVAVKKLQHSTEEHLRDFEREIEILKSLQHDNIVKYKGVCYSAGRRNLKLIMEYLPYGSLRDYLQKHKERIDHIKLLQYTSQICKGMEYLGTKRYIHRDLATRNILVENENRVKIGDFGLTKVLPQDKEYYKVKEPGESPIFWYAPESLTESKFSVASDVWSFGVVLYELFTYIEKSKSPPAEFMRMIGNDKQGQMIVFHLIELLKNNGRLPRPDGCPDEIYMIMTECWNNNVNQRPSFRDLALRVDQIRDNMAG

Regarding `CN(C)S(=O)(=O)c1ccc(-c2[nH]c3nc(N)[nH]c(=O)c3c2-c2ccccc2Cl)cc1` [Example 5, 4-(2-Amino-5-(2-chlorophenyl)-4-oxo-4,7-dihydro-3H-pyrrolo[2,3-d]pyrimidin-6-yl)-N,N-dimethylbenzene sulfonamide], the values for the IC50 in assay [1], in assay [2] and in assay [3] were 1 to 2.5 µM, 1 to 2.5 µM and over 2.5 µM, respectively.
Regarding `CN(C)S(=O)(=O)c1ccc(-c2[nH]c3nc(N)[nH]c(=O)c3c2-c2ccc(C(=O)O)cc2)cc1` [Example 35, 4-(2-amino-6-(4-(N,N-dimethylsulfamoyl)phenyl)-4-oxo-4,7-dihydro-3H-pyrrolo[2,3-d]pyrimidin-5-yl)benzoic acid], the values for the IC50 in assay [1], in assay [2] and in assay [3] were 0.1 to 0.5 µM, 0.1 to 0.5 µM and 0.5 to 1 µM, respectively.
Take `CN(C)S(=O)(=O)c1ccc(-c2[nH]c3nc(N)[nH]c(=O)c3c2-c2ccc(C#N)cc2)cc1` [Example 39, 4-(2-Amino-5-(4-cyanophenyl)-4-oxo-4,7-dihydro-3H-pyrrolo[2,3-d]pyrimidin-6-yl)-N,N-dimethylbenzene sulfonamide]: the IC50 (usually the point on the concentration scale where inhibition reaches its midpoint) in assay [1] is 1 to 2.5 µM; in assay [2], 0.5 to 1 µM; in assay [3], over 2.5 µM.
For `COc1cc2ccccc2cc1-c1c(-c2ccc(S(=O)(=O)N(C)C)cc2)[nH]c2nc(N)[nH]c(=O)c12` [Example 33, 4-(2-Amino-5-(3-methoxynaphthalen-2-yl)-4-oxo-4,7-dihydro-3H-pyrrolo[2,3-d]pyrimidin-6-yl)-N,N-dimethylbenzene sulfonamide], in that order: 0.5 to 1 µM, 0.5 to 1 µM and over 2.5 µM.
For `CN(C)S(=O)(=O)c1ccc(-c2[nH]c3nc(N)[nH]c(=O)c3c2C2=CCCC2)cc1` [Example 47, 4-(2-Amino-5-(cyclopent-1-en-1-yl)-4-oxo-4,7-dihydro-3H-pyrrolo[2,3-d]pyrimidin-6-yl)-N,N-dimethylbenzenesulfonamide], in that order: 0.1 to 0.5 µM, 0.1 to 0.5 µM and 0.1 to 0.5 µM.
Taken in the same sequence, the figures for `CN(C)S(=O)(=O)c1ccc(-c2[nH]c3nc(N)[nH]c(=O)c3c2-c2cnn(Cc3cccnc3)c2)cc1` [Example 29, 4-(2-Amino-4-oxo-5-(1-(pyridin-3-ylmethyl)-1H-pyrazol-4-yl)-4,7-dihydro-3H-pyrrolo[2,3-d]pyrimidin-6-yl)-N,N-dimethylbenzene sulfonamide] were over 2.5 µM, over 2.5 µM and over 2.5 µM.
For `Cc1cccc(-c2c(-c3ccc(C(=O)N(C)C)cc3)[nH]c3nc(N)[nH]c(=O)c23)c1` [Example 60, 4-(2-Amino-4-oxo-5-(3-tolyl)-4,7-dihydro-3H-pyrrolo[2,3-d]pyrimidin-6-yl)-N,N-dimethylbenzamide], the IC50 was 0.5 to 1 µM in assay [1], 0.5 to 1 µM in assay [2] and over 2.5 µM in assay [3].

Source of the values: patent US11919908B2, “Substituted pyrrolo[2,3-d]pyrimidine compounds as JAK2 V617F inhibitors” (Incyte Corporation, priority 2020, dated 2024).
